In patent publication US20230149507A1, “TREATMENT OF ALT CANCERS” (INSTITUTO DE MEDICINA MOLECULAR JOÃO LOBO ANTUNES, priority 2019, published 2023):

What was measured:
U2OS and HeLa cells = test: Indirect IF with anti-BLM and anti-TRF2 antibodies, camptothecin treatment; assay type: cell-based, human
Excerpt: HeLa cervical cancer, HT1080 fibrosarcoma, and HEK293 embryonic kidney cells were purchased from ATCC. U2OS osteosarcoma cells were a kind gift from M. Lopes (IMCR, Zurich, Switzerland). HuO9, Saos2 and HOS osteosarcoma cells were a kind gift from B. Fuchs (Balgrist University Hospital, Zurich, Switzerland). WI-38 VA13 in vitro SV40-transformed lung fibroblasts were a kind gift from A. Londoño-Vallejo (CNRS, Paris, France). SKNAS neuroblastoma cells were a kind gift from O. Shakhova (University Hospital Zurich, Switzerland). HeLa, HT1080, HEK293, U2OS, and WI-38 VA13 cells were cultured in high glucose DMEM, GlutaMAX (Thermo Fisher Scientific) supplemented with 10% tetracycline-free fetal bovine serum (Pan BioTech) and 100 U/ml penicillin-streptomycin (Thermo Fisher Scientific). HuO9, Saos2, HOS and SKNAS cells were cultured in high glucose DMEM/F12, GlutaMAX (Thermo Fisher Scientific), supplemented with 10% tetracycline-free fetal bovine serum (Pan BioTech), 100 U/ml penicillin-streptomycin (Thermo Fisher Scientific) and non-essential amino acids (Thermo Fisher Scientific). Mycoplasma contaminations were tested using the VenorGeM Mycoplasma PCR Detection Kit (Minerva Biolabs) according to the manufacturer's instructions. […]

U-2 OS cells = test: Terminal restriction fragment (TRF) analysis after FANCM siRNA; assay type: cell-based, human; conditions: FANCM depletion, siRNA 30 nM
Excerpt: (§1) (a) Representative images of telomere (green) and γ-H2AX (red) colocalizations on metaphase spreads (meta-TIFs) in U-2 OS cells with or without FANCM depletion (left panel). Meta-TIFs are indicated by white arrows. Scale bars are 5 μm. Quantitation of TIFs (right panel). Scatterplot bars represent the mean±SEM. Out of 3 experiments, n≥81 metaphases scored per treatment, **p<0.005, Mann-Whitney test. (b) Native and denatured TRF analysis of U-2 OS cells with or without FANCM depletion. Colored arrows correspond to telomeric DNA species depicted in panel c. (c) Schematic of migration patterns for indicated telomeric species separated by two-dimensional gel electrophoresis (top panel). Two-dimensional TRF analysis of U-2 OS cells with or without FANCM depletion, hybridized under native and denatured conditions to detect the telomeric C-strand and G-strand (left and right panels). Colored arrows correspond to telomeric DNA species depicted in schematic. (d) Representative dot blot and quantitation of C-circle assays of U-2 OS cells with or without FANCM depletion. C-circle levels were normalized to the mean of scrambled control. Error bars represent the mean±SEM from n=3 experiments, *p<0.05, **p<0.005, Student's t-test. […] Out of 3 experiments, n≥150 cells scored per treatment, *p<0.05, **p<0.005, Mann-Whitney test. […]

U-2 OS ALT cells = test: Metaphase-TIFs after FANCM knockdown with siRNA; assay type: cell-based, human; conditions: compared to the scrambled control; siRNA 30 nM, 72 h
Excerpt: as §1

[1] = biological target: T1, BLM-TOP3A-RMI (BTR) complex (human, UniProt P54132 1-1417; Q13472 1-1001; Q9H9A7 1-625; Q96E14 2-147, limits assumed); test: competition co-IP: peptide added to HEK-293 Flag-FANCM lysate, Flag IP, TOP3A immunoblot
T1 construct: Endogenous complex in cell lysates (BLM, TOP3A, RMI1, RMI2); In the co-IPs it is read out by TOP3A and/or RMI1 immunoblot
Description: For co-IP experiments involved the ER-inducible system, cells were lysed in IP buffer (20 mM Tris-HCl pH 7.5, 100 mM NaCl, 10% (v/v) glycerol, 0.5 mM EDTA, 1 mM DTT) supplemented with 1× mammalian protease inhibitor cocktail (Sigma Aldrich) and 50 U/ml Benzonase (Novagen) for 2 h at 4° C., with or without MM2 peptide variants (Mimotopes). Following lysis, NaCl concentration was increased to 250 mM, then the lysate cleared at 16,000×g for 15 mins. Supernatant was then mixed with 1 μg of α-FANCM (Abcam) or α-ER (Santa Cruz Biotechnology) and 20 μl protein G sepharose (GE Healthcare), or using α-Flag M2 agarose (Sigma Aldrich). Following 3 h of mixing at 4° C., beads were washed 4× with IP buffer, and 1× with 50 mM NH₄(CO₃)₂, 0.5 mM EDTA, then eluted with 500 mM NH₄OH (pH 11.0), 0.5 mM EDTA. Samples were then lyophilized and resuspended in 1×LDS loading buffer (Life Technologies) prior to immunoblotting.
To explore the possibility of specifically targeting ALT cell viability through FANCM, two approaches to disrupt the FANCM-BTR complex were adopted. […] To investigate the effects of FANCM-BTR complex disruption in ALT cells, the MM2 peptide was rendered functionally dependent on tamoxifen by fusion to the C-terminus of the estrogen receptor (MM2-ER) (FIG. 11a). […]

T1 sequence (P54132 whole entry, chain 1 of 4): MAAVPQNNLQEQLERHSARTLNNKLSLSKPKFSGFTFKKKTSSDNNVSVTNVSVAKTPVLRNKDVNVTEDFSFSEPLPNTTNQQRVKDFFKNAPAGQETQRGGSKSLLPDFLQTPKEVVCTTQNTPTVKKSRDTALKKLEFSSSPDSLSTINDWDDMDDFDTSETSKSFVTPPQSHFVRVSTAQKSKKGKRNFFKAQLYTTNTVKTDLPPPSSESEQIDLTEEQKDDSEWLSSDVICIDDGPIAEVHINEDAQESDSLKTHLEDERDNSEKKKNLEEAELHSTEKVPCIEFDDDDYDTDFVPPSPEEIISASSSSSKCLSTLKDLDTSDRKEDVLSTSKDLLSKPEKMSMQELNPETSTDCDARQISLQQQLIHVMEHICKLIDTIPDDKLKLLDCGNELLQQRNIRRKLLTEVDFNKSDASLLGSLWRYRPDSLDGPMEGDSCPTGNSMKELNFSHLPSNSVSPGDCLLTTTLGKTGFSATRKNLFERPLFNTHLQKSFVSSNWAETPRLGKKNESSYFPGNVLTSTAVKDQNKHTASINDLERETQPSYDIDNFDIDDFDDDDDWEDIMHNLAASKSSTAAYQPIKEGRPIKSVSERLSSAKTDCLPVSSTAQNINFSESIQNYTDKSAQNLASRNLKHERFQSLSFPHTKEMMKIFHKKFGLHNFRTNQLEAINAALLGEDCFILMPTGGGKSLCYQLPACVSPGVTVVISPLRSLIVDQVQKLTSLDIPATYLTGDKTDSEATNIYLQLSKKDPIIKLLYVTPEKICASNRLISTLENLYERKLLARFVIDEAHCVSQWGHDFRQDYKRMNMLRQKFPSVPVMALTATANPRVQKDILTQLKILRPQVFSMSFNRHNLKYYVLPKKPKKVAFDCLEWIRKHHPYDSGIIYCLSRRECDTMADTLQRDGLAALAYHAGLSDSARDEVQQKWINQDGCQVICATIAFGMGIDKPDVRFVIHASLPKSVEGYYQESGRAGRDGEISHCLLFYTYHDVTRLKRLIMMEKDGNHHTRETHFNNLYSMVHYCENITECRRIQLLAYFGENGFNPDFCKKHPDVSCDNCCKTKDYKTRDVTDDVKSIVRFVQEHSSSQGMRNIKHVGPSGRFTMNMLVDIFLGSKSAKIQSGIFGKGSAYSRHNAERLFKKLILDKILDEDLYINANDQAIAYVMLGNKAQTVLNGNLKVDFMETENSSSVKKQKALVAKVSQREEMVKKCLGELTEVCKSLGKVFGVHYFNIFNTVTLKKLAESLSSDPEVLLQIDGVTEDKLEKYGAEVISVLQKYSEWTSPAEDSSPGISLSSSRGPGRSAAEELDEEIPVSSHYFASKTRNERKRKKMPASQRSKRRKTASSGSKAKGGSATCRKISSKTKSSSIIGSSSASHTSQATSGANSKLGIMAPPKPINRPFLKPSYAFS
T1 sequence (Q13472 whole entry, chain 2 of 4): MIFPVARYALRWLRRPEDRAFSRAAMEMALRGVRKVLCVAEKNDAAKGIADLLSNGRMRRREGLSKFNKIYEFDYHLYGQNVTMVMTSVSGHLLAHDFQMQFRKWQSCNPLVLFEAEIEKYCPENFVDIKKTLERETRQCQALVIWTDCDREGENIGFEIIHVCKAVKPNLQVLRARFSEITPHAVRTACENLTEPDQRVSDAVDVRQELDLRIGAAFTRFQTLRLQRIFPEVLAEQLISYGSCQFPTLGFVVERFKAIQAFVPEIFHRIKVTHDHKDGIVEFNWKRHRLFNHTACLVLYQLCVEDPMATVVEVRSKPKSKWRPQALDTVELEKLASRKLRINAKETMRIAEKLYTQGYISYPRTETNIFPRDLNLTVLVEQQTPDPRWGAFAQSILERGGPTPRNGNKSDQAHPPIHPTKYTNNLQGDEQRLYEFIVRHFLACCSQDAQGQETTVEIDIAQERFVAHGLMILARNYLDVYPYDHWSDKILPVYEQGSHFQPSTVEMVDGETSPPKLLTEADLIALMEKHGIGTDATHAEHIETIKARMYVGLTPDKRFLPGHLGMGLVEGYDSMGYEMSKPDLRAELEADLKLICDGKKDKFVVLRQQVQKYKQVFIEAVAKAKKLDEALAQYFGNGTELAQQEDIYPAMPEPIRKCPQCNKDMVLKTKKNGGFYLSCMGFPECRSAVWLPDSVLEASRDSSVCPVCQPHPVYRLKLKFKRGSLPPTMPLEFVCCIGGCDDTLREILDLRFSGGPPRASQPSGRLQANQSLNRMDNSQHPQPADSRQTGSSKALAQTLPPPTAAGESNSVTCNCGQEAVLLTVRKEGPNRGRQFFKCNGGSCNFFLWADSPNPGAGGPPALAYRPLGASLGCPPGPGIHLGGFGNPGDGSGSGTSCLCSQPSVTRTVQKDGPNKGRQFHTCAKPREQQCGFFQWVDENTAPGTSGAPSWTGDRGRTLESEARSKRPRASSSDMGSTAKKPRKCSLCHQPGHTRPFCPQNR
T1 sequence (Q9H9A7 whole entry, chain 3 of 4): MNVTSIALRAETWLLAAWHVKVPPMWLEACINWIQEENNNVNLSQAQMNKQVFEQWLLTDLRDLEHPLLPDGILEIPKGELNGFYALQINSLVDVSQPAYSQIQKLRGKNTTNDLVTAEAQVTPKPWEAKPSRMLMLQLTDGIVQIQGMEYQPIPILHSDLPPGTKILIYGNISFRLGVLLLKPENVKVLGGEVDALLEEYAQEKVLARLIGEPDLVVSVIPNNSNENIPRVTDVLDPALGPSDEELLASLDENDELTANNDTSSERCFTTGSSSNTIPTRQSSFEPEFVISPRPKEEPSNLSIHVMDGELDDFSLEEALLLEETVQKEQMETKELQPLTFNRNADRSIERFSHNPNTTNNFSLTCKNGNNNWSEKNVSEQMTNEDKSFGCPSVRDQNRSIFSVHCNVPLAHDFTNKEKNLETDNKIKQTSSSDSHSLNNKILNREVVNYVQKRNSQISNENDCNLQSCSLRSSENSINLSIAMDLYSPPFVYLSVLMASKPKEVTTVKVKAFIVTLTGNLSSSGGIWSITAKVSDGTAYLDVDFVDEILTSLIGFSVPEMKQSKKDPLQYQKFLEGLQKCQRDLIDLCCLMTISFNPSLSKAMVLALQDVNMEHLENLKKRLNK
T1 sequence (Q96E14 2-147 limits assumed, chain 4 of 4): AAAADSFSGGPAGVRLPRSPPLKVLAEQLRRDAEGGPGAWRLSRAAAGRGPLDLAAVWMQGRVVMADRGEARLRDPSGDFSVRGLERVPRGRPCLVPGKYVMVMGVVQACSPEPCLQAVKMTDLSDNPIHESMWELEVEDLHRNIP

CC[C@@]1(O)C(=O)OCc2c1cc1n(c2=O)Cc2cc3ccccc3nc2-1 [CPT, Camptothecin]
BLM TIF frequencies (U2OS and HeLa cells; all samples): marginally affected TIF frequencies | nuclear (non-telomeric) BLM foci (U2OS and HeLa cells; siCt-transfected U2OS and HeLa cells, 1 μM camptothecin for 3 hours): robust formation of nuclear (non-telomeric) BLM foci

siFANCM2: Silencer Select siRNA FANCM2 (s33621) (SEQ ID NO: 13) (GAACAUACAUCAGAUAGCA; listed as RNA, chemistry not given here)
G-rich overhang and low molecular weight ss C-rich telomeric DNA (native TRF) (U-2 OS cells): most marked effects | metaphase-TIFs (meta-TIFs) (U-2 OS ALT cells): significant increase in metaphase-TIFs

B1: mutant human FANCM MM2 peptide containing the FF>AA mutant (peptide)
peptide: EDIFDCSRDLFSVTADLGACSPDSDDEILEHTSD
notes: also called MM2-FF>AA mutant peptide
binding result [1]: no binding (tested: 1-50 µM)
